Results taken from patent US6342534B1, “Analogs of biologically active, naturally occurring polyamines, pharmaceutical compositions and methods of treatment” (University of Florida Research Foundation, Inc., priority 1986, dated 2002).
Read-outs that look alike come from different tables or passages of the source.

Columns and labels:
L1210 cells = assay: Growth inhibition of L1210 cells (IC50 at 48/96 h); format: cell-based; details: Mus musculus
[1] = system: a variety of tumors in cell culture; assay: Anti-neoplastic activity against tumors in cell culture; format: cell-based
Description: (§1) If there is any significance to the role of charge interaction in the biological properties of the polyamine analogs, alterations in the polyamine methylene backbone should have significant impact on the compound's biological properties. […] The trifluoroethyl group substantially reduces the pKa of the terminal nitrogens and they are no longer protonated [J. Org. Chem., Vol. 24, “Fluorine containing nitrogen compounds—I Trifluoroethylamines,” Bissel et al, pages 1256-1259 (1959)]. Even though the dimensions of bis-β,β,β-trifluoroethylspermine and diethylspermine are essentially the same, what was once a tetracationic spermine analog is now only a dication. […] The same phenomenon is observed when one acetylates a terminal nitrogen of spermine. The amide nitrogen is not protonated at physiological pH, and the compound has no anti-neoplastic properties and behaves very much like spermidine in displacing ethidium iodide from DNA.

calf thymus DNA = assay: Displacement of ethidium iodide from calf thymus DNA; format: binding; details: compared with natural polyamines
Description: as §1

[2] = cited from earlier work
[3] = Table 1, 48 h, read-out: IC50 (μM) of L1210 cells at 48 h
[4] = Table 1, 96 h, read-out: IC50 (μM) of L1210 cells at 96 h

Row | IC50 (L1210 cells; [3]) [µM] | IC50 (L1210 cells; [4]) [µM] | Structure (SMILES) | anti-neoplastic activity [1] | ability to displace ethidium iodide from calf thymus DNA (calf thymus DNA) | SAT up-regulation (factor) [2]
1 | 2 | 0.2 | C(CCNCC1CCNCC1)CNCC1CCNCC1 |  |  | 
2 | > 100 | 90 | c1cc(CNCCCCNCc2ccncc2)ccn1 |  |  | 
3 | > 100 | 0.25 | C(CCNCCC1CCNCC1)CNCCC1CCNCC1 |  |  | 
4 | > 100 | > 100 | c1cc(CCNCCNCCc2ccncc2)ccn1 |  |  | 
5 |  |  | FC(F)(F)CNCCCNCCCCNCCCNCC(F)(F)F [BTFESPM, bis-β,β,β-trifluoroethylspermine] | essentially disappears | behave more like putrescine than spermine | 
6 |  |  | CCNCCCCNCCCCNCCCCNCC [DEHSPM, diethyl-homospermine] |  |  | little impact on SAT levels
7 |  |  | CCNCCCNCCCNCCCNCC [DENSPM, diethylnorspermine] |  |  | 1,200 fold
8 |  |  | CCNCCCNCCCCNCCCNCC [DESPM, N^1,N^12-diethylspermine] | quite active |  | 200 fold
